Source: patent US20110294732A1, “ERYTHROPOLETIN COMPLEMENTATION OR REPLACEMENT” (Universite De Strasbourg, priority 2007, published 2011)
Values joined by “and” are separate entries in the source; they are usually repeats but may differ in a detail not shown here. Equal entries are not always repeated. “Also recorded” adds a separate entry of the source.

What was measured:
murine hemoglobin = murine hemoglobin (Mus musculus, UniProt P02088); assay: In vitro P50 shift of hemoglobin mixed with ITPP (HEMOX analyzer); format: biochemical
Chain of murine hemoglobin (P02088 2-147 limits assumed): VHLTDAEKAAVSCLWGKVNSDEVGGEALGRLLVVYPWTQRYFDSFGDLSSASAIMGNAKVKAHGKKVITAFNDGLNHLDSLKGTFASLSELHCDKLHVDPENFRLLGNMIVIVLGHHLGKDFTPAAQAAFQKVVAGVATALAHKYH
Chain of murine hemoglobin (P01942 2-142 partner limits assumed): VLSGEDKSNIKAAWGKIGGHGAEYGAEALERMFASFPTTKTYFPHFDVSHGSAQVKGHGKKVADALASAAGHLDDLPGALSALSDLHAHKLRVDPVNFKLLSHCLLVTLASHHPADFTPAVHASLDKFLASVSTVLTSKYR
Protocol: Myo-ITPP was tested for its ability to induce a decrease of the O2-affinity of hemoglobin measured as a shift of the P50 value (P50 at 50% saturation of hemoglobin). The observed shifts to higher PO2 were up to 250% in murine hemoglobin and up to 40% in murine whole blood. This finding was particularly striking because the shifts occurred concomitantly in vivo with a decrease in the number of RBCs and hematocrit; such hemodilution is recognized as a positive indicator in many circumstances because it is diagnostic for downregulation of RBC production where the body's oxygen needs are being met efficiently. Additional support came from enhancement of the effort capacity of test animals by up to 100% following ITPP administration, which confirmed that oxygen was being delivered efficiently to the working muscle, and only to that muscle.
(§1) For the in vitro experiments, ITPP was dissolved in deionized water, pH was adjusted to pH 7 and, for incubation with whole blood, the osmolarity of the ITPP solutions was adjusted with glucose to 270-297 mOsM. Mixtures of hemoglobin and ITPP were measured with a HEMOX analyzer (PD Marketing, London) immediately after mixing. Red blood cells were incubated with ITPP for 1 hour at 37° C. Following incubation, the cells were washed 3 times with Bis-Tris-buffer (pH=7.0) and then used for P50 measurement.

whole blood [1] = assay: In vitro P50 of whole blood after incubation with effector, mouse; format: cell-based
Protocol: as §1
(§2) ITPP was tested along with a cholesteroyl derivative (here designated as kf96) (both at 60 mM) as effectors for P50 shifts in whole blood of three species: human, mouse and pig. As usual, pHs for the compound-solutions were adjusted to ca. 7.0, osmolarities for both solutions were determined (325-373 mOsM) prior to treatment with the effectors, and whole blood volumes at 1:1 ratios were incubated.

whole blood [2] = assay: In vitro P50 of whole blood after incubation with effector, human; format: cell-based; conditions: 60 mM
Protocol: as §1, §2

circulating RBC = assay: P50 shift of circulating RBC after oral administration in drinking water; format: in vivo, C57BL/6 mice
Protocol: In experiments conducted in vivo in which ITPP was administered orally, ITPP was dissolved in drinking (not deionized) water at a 20 g/L-concentration (=27 mM, pH 7.0) and offered for drinking ad libitum. A significant shift of the P50 value of circulating RBCs was observed.
(§3) Twelve C57BL/6 mice drank ITPP over 4 days (about 25 ml/24 hrs). Seven Control mice drank either pure water (three mice), or a solution of IHP (inositol hexaphosphate without the internal pyrophosphate rings) at the same concentration and pH as ITPP (4 mice). […] Blood was collected from the tail vein of the 12 C57BL/6 mice on day 0 (before treatment started), 1, 2, 4, 6, 7, 8, 10, 11 and 12, in order to measure P50 values. […] Oral application of ITPP caused significant right shifts of P50 (up to 31%) in mice.
The 12 mice were observed over 12 days, the P50 values of their circulating RBC were measured almost daily. […] It appears that all mice ingesting the aqueous solution of ITPP present a shift of the P50 value of their circulating RBC, albeit with individual differences. FIG. 8 illustrates the individual differences in the P50 shift induced in the mice by ingestion of the aqueous solution of ITPP.

[3] = Blood counts of mice after oral ingestion; format: in vivo
Text: Blood from mice that ingested ITPP or IHP in water (for 4 days) or water only was collected on day 0, 7 and 11, in order to assess any differences in the blood count (and the amount of erythropoietin in the sera) of treated and control mice. […] The amount of blood from the other mice was not sufficient to determine the blood count.

[4] = Tolerability of oral treatment in mice; format: in vivo, C57BL/6 mice; conditions: drinking over 4 days
Protocol: as §3

porcine RBCs = assay: P50 shift of porcine RBCs after intravenous injection; format: in vivo, piglet; conditions: intravenous 1 g ITPP/kg body weight
Protocol: (§4) An in vivo experiment was performed on one 8 week-old normal piglet (body weight: 17 kg). The piglet was anesthesized with 5% Isoflurane, 0.7 L/min N2O and 2.0 L/min O2 for 20-30 minutes, when ITPP was injected, or blood was taken from the ear vein, respectively. The compound injected intravenous at a concentration of 27 g ITPP/100 ml water (volume injected: 63 ml, pH 6.5, containing 17 g ITPP=1 g/l kg body weight) was not harmful to the animal, when injected into the piglet's ear vein over at least 10 minutes.
(§5) Intravenous injection of 1 g ITPP/kg body weight caused a significant right shift of the P50-value (up to 20%) in porcine RBCs. An almost saturated ITPP solution, pH 6.7, was injected intravenously into two piglets (both of ca. 18 kg body weight) (27 g ITPP/100 ml=1.5 g/kg body weight) over 20 minutes.

[5] = Tolerability and toxicity of intravenous injection in piglets; format: in vivo
Protocol: as §4, §5
Blood was taken from the heart of the dead animals for determination of blood counts as well as the amount of sodium, potassium and calcium in the sera. All numbers of blood cells (hematocrit, white blood cells etc.) were halved. The amount of potassium and calcium was normal, while sodium was doubled (before injection: 120-140 mmol/L; after injection: 245 mmol/L). Apparently, the large amount of sodium in that form of ITPP (6 Na^+/molecule) caused the death of the animals. It appears that up to 1 g ITPP per kg body weight can be injected intravenously, (if injected slowly) without harmful effects for the animals. […] A second piglet was also injected with ITPP at the 1 g/kg concentration, after 2 piglets had died after iv injection of 1.2 g ITPP (or even more) per kg body weight. […] Starting with day 3 after injection of the allosteric effector, the number of reticulocytes increased by about 3% for a period of 14 days.

O=P1(O)OC2C3OP(=O)(O)OP(=O)(O)OC3C3OP(=O)(O)OP(=O)(O)OC3C2OP(=O)(O)O1 (centres unmarked) [ITPP, inositol-tripyrophosphate]
shift of the P50 value to higher PO2 (murine hemoglobin): up to 250%
P50 increase, % (ITPP) (whole blood [1]; mouse whole blood, 60 mM): 29%
P50 mm Hg effector ITPP (whole blood [1]; mouse whole blood, 60 mM, control 36.7): 47.4 mm Hg
shift of the P50 value to higher PO2 (whole blood [1]; murine whole blood): up to 40%
P50 increase, % (ITPP) (whole blood [2]): 39%
P50 mm Hg effector ITPP (whole blood [2]; control 22.1): 30.8 mm Hg
time for P50 values to return to control values (circulating RBC; ingestion stopped on day 4): ≤ 12 days
time lag before the maximum P50 shift is attained (circulating RBC; oral, 27 mM): about 48 hrs
right shift of P50 (circulating RBC; oral, 20 g/L (27 mM) in drinking water over 4 days): up to 31%
P50 day 7, % (circulating RBC; single mouse, oral in water for 4 days, day 7): 13% and 14% and 20% (2×) and 16% (2×) and 15% and 7% and 9%
P50 day 10, % (circulating RBC; single mouse, oral in water for 4 days, day 10): 10% (3×) and 6% and 12% and 16% and 8% and 11% and 9%
time until the basal value of the RBC count is restored ([3]; after ingestion, once ΔP50 becomes 0%): 12 days
number of RBCs ([3]; oral ingestion for 4 days): reduced significantly
number of white blood cells versus other groups ([3]; oral ingestion for 4 days): no major differences
RBC × 10^6/mm^3 (day 7) ([3]; single mouse, oral in water for 4 days, day 7, day 0 count 8.9-11.8): 6.60 10^6/mm^3 and 5.73 10^6/mm^3 and 6.35 10^6/mm^3 and 5.64 10^6/mm^3 and 5.45 10^6/mm^3 and 8.76 10^6/mm^3 and 7.70 10^6/mm^3 and 6.54 10^6/mm^3 (2×)
tolerability of oral treatment [4]: No C57BL/6 mouse seemed to suffer
right shift of the P50-value (porcine RBCs): up to 20%
harmfulness of intravenous injection ([5]; 1 g/kg body weight, injected slowly over at least 10 minutes): not harmful
amount of potassium and calcium in the sera ([5]; after lethal iv injection): normal
sodium in the sera after injection ([5]; after lethal iv injection, before injection 120-140): 245 mmol/L
numbers of blood cells (hematocrit, white blood cells etc.) in the dead animals ([5]; heart blood after lethal iv injection): halved
amount that can be injected intravenously without harmful effects ([5]; if injected slowly): up to 1 g ITPP per kg body weight
mortality ([5]; iv, almost saturated solution 27 g/100 ml, intended 1.5 g/kg over 20 minutes, received <1.3 g/kg): Both piglets died; also recorded: killed the animals
